As a reminder, the inhibition is the drop in the measured response relative to a control, in per cent. In general, pKi refers to the Ki on a negative log10 scale, so that one unit is a factor of ten. Low readings indicate a large Ki, high ones a small Ki.

These results are taken from ChEMBL document CHEMBL4800727 (2021).

Test [1] has as its target 5-hydroxytryptamine receptor 1E (Homo sapiens) (UniProt P28566). Particulars: Compound concentration 10.0 uM.
The target of test [2] is Angiopoietin-1 receptor (Homo sapiens) (UniProt Q02763). Briefly: TEK tyrosine kinase, endothelial Millipore kinase panel. The following applies: Compound concentration 10.0 uM.
Test [3] addresses Prostacyclin receptor (Homo sapiens) (UniProt P43119). Description: hIP1 Cerep panel. Particulars: Compound concentration 10.0 uM.
Test [4] deals with B2 bradykinin receptor (Homo sapiens) (UniProt P30411). Briefly: hBK2 Cerep panel. Particulars: Compound concentration 10.0 uM.
The target of test [5] is Neuropeptide Y receptor type 1 (Homo sapiens) (UniProt P25929). Briefly: hNPY1 Cerep panel. Particulars: Compound concentration 10.0 uM.
For test [6], the target named is Nociceptin receptor (Homo sapiens) (UniProt P41146). Briefly: hORL1 Cerep panel. Particulars: Compound concentration 10.0 uM.
In test [7] the target is Ephrin type-A receptor 4 (Homo sapiens) (UniProt P54764). Briefly: EPH receptor A4 Millipore kinase panel. The following applies: Compound concentration 10.0 uM.
Test [8] has as its target 5-hydroxytryptamine receptor 7 (Homo sapiens, UniProt P34969). Briefly: h5HT7 Cerep panel. Particulars: Compound concentration 10.0 uM.
For test [9], the target named is Serine/threonine-protein kinase TAO2 (Homo sapiens) (UniProt Q9UL54). Briefly: TAO kinase 2 Millipore kinase panel. Particulars: Compound concentration 10.0 uM.
Test [10] deals with T1, Muscarinic acetylcholine receptor M2 (Homo sapiens) (UniProt P08172).
T1 sequence (whole entry): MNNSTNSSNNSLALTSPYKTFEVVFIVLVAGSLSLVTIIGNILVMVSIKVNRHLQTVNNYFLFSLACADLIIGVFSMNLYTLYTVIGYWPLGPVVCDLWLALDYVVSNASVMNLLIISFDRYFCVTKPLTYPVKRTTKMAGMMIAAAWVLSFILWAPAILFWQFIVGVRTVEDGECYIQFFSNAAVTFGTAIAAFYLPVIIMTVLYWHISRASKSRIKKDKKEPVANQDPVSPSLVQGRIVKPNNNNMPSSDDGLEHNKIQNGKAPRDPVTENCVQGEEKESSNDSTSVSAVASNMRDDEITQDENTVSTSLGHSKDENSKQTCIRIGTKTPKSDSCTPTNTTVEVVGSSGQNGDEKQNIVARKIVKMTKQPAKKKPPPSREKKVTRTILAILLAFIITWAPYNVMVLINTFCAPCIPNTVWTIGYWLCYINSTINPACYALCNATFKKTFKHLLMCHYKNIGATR
Description: hM2 Cerep panel. The following applies: Compound concentration 10.0 uM.

Test [11] has as its target Mitogen-activated protein kinase kinase kinase kinase 1 (Homo sapiens) (UniProt Q92918). Briefly: mitogen-activated protein kinase kinase kinase kinase 1 Millipore kinase panel. Particulars: Compound concentration 10.0 uM.
The species entered for another test is Rattus norvegicus. Briefly: rGlutamate (ionotropic) MDL Cerep panel. The following applies: Compound concentration 10.0 uM.
For test [12], the target named is 5-hydroxytryptamine receptor 5A (Homo sapiens) (UniProt P47898). Briefly: h5HT5A Cerep panel. Particulars: Compound concentration 10.0 uM.
The target of test [13] is Protein kinase C zeta type (Homo sapiens) (UniProt Q05513). Briefly: protein kinase C, zeta Millipore kinase panel. The following applies: Compound concentration 10.0 uM.
Test [14] addresses Serine/threonine-protein kinase haspin (Homo sapiens) (UniProt Q8TF76). Briefly: germ cell associated 2 (haspin) Millipore kinase panel. The following applies: Compound concentration 10.0 uM.
In test [15] the target is Sodium-dependent noradrenaline transporter (Homo sapiens) (UniProt P23975). Briefly: hNET Cerep panel. Particulars: Compound concentration 10.0 uM.
Test [16] deals with Substance-K receptor (Homo sapiens) (UniProt P21452). Description: hNK2 Cerep panel. The following applies: Compound concentration 10.0 uM.
For test [17], the target named is G protein-coupled receptor kinase 5 (Homo sapiens) (UniProt P34947). Briefly: G protein-coupled receptor kinase 5 Millipore kinase panel. The following applies: Compound concentration 10.0 uM.
Test [18] has as its target Death-associated protein kinase 2 (Homo sapiens) (UniProt Q9UIK4). Description: death-associated protein kinase 2 Millipore kinase panel. The following applies: Compound concentration 10.0 uM.
Test [19] concerns the target Serine/threonine-protein kinase 3 (Homo sapiens) (UniProt Q13188). Briefly: serine/threonine kinase 3 Millipore kinase panel. Particulars: Compound concentration 10.0 uM.
Test [20] has as its target Macrophage colony-stimulating factor 1 receptor (Homo sapiens) (UniProt P07333). Briefly: colony stimulating factor 1 receptor Millipore kinase panel. Particulars: Compound concentration 10.0 uM.
For test [21], the target named is 5-hydroxytryptamine receptor 2B (Homo sapiens, UniProt P41595). Briefly: h5HT2B Cerep panel. The following applies: Compound concentration 10.0 uM.
The target in test [22] is Vascular endothelial growth factor receptor 1 (Homo sapiens) (UniProt P17948). Description: fms-related tyrosine kinase 1 Millipore kinase panel. The following applies: Compound concentration 10.0 uM.
Test [23] concerns the target Insulin-like growth factor 1 receptor (Homo sapiens) (UniProt P08069). Briefly: insulin-like growth factor 1 receptor (activated) Millipore kinase panel. Particulars: Compound concentration 10.0 uM.
Test [24] concerns the target Muscle, skeletal receptor tyrosine-protein kinase (Homo sapiens) (UniProt O15146). Description: muscle, skeletal, receptor tyrosine kinase Millipore kinase panel. The following applies: Compound concentration 10.0 uM.
In test [25] the target is Serine/threonine-protein kinase mTOR (Homo sapiens) (UniProt P42345). Briefly: mechanistic target of rapamycin Millipore kinase panel. The following applies: Compound concentration 10.0 uM.
For test [26], the target named is Muscarinic acetylcholine receptor M5 (Homo sapiens) (UniProt P08912). The following applies: Compound concentration 10.0 uM.
In test [27] the target is Protein kinase C theta type (Homo sapiens) (UniProt Q04759). Description: protein kinase C, theta Millipore kinase panel. The following applies: Compound concentration 10.0 uM.
For test [28], the target named is Vascular endothelial growth factor receptor 2 (Homo sapiens) (UniProt P35968). Briefly: kinase insert domain receptor Millipore kinase panel. Particulars: Compound concentration 10.0 uM.
Test [29] has as its target Ribosomal protein S6 kinase alpha-6 (Homo sapiens) (UniProt Q9UK32). Description: ribosomal protein S6 kinase, 90kDa, polypeptide 6 Millipore kinase panel. Particulars: Compound concentration 10.0 uM.
The target of test [30] is C-C chemokine receptor type 1 (Homo sapiens) (UniProt P32246). Briefly: hCCR1 Cerep panel. Particulars: Compound concentration 10.0 uM.
Test [31] concerns the target cAMP and cAMP-inhibited cGMP 3',5'-cyclic phosphodiesterase 10A (Mus musculus) (UniProt Q8CA95).
The target of test [32] is T2, Muscarinic acetylcholine receptor M4 (Homo sapiens) (UniProt P08173).
T2 sequence (whole entry): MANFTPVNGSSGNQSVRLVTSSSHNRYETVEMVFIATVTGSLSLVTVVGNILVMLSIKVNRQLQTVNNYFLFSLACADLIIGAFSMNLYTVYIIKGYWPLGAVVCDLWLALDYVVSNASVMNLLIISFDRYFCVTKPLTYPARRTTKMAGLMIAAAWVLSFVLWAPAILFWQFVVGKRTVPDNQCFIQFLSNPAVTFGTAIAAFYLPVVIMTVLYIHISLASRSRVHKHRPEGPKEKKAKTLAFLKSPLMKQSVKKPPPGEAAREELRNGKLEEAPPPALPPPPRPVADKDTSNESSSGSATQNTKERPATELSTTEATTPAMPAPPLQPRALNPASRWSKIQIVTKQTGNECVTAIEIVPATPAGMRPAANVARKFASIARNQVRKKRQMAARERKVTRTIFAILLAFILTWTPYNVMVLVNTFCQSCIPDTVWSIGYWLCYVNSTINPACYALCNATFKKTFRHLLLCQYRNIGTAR
Description: hM4 Cerep panel. The following applies: Compound concentration 10.0 uM.

The target in test [33] is Receptor-type tyrosine-protein kinase FLT3 (Homo sapiens) (UniProt P36888). Description: fms-related tyrosine kinase 3 Millipore kinase panel. The following applies: Compound concentration 10.0 uM.
The target in test [34] is Tyrosine-protein kinase TXK (Homo sapiens) (UniProt P42681). Description: TXK tyrosine kinase Millipore kinase panel. The following applies: Compound concentration 10.0 uM.
The target of test [35] is Prostaglandin G/H synthase 2 (Homo sapiens) (UniProt P35354). Description: hCOX2 Cerep panel. Particulars: Compound concentration 10.0 uM.
The target of test [36] is Serine/threonine-protein kinase TAO3 (Homo sapiens) (UniProt Q9H2K8). Briefly: TAO kinase 3 Millipore kinase panel. The following applies: Compound concentration 10.0 uM.
The target in test [37] is cGMP-dependent 3',5'-cyclic phosphodiesterase (Homo sapiens, UniProt O00408). Briefly: hPDE2A PDE scan.

Molecules are shown by their SMILES. pKi: −log10 of the molar value.

G protein-coupled receptor kinase 5 (Homo sapiens), sequence (P34947 whole entry, looked up): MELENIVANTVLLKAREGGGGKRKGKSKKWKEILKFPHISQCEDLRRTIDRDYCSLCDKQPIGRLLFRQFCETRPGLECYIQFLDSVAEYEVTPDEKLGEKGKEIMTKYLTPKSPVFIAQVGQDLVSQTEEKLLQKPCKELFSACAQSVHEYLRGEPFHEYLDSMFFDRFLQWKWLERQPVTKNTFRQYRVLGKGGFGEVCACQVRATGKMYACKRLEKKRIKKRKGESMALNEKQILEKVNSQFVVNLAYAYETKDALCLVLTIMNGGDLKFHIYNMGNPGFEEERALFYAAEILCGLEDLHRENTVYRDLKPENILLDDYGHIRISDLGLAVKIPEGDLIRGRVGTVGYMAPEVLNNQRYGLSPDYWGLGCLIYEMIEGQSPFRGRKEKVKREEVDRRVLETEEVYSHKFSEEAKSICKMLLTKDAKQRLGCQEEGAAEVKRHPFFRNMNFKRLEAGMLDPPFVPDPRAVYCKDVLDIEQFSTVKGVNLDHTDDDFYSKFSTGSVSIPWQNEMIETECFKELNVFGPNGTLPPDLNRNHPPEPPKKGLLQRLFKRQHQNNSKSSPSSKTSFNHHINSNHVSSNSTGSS
Receptor-type tyrosine-protein kinase FLT3 (Homo sapiens), sequence (P36888 whole entry): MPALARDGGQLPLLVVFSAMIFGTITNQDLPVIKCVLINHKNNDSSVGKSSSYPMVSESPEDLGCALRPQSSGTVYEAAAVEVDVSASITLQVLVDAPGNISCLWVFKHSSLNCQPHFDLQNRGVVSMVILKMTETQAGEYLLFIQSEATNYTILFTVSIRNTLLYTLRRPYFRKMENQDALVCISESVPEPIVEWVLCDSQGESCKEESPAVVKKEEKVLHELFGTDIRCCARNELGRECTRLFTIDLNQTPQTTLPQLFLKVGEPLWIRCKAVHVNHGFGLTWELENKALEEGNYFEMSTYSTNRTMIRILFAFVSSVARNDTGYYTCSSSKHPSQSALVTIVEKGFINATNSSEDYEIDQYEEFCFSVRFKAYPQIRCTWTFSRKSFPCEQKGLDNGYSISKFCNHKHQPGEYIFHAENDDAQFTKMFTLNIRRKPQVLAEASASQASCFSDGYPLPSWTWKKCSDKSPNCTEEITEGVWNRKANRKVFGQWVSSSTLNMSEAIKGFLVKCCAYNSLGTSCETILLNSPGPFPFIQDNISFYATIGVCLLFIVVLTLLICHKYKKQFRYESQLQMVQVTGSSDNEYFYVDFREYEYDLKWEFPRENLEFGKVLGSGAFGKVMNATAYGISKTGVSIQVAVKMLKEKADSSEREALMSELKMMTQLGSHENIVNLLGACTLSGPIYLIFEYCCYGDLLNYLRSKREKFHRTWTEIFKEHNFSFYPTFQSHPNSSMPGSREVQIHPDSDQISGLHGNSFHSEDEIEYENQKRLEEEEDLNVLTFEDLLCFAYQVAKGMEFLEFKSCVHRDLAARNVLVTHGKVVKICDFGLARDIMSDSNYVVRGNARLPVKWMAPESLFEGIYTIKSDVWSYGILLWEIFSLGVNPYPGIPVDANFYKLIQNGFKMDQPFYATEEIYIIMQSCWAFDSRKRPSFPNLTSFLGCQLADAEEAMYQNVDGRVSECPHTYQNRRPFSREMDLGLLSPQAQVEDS
Protein kinase C theta type (Homo sapiens), sequence (Q04759 whole entry, looked up, the tested form may be a part): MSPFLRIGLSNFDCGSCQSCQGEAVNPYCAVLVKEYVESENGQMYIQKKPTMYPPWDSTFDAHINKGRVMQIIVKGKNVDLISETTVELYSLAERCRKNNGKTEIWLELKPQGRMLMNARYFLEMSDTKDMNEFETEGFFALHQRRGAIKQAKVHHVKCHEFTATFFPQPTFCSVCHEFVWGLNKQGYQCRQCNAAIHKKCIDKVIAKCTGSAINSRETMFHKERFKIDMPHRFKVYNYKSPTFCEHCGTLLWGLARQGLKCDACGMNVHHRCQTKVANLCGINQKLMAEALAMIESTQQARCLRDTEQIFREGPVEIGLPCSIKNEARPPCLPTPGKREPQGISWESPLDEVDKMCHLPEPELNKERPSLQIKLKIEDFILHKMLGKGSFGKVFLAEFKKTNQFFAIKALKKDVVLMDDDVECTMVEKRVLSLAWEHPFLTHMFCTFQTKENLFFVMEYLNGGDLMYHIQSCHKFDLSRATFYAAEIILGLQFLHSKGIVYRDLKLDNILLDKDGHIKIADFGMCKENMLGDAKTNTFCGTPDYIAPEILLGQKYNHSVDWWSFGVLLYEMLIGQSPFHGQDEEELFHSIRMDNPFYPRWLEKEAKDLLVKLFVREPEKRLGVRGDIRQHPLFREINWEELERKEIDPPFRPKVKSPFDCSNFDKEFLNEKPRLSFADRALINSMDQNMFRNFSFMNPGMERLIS
5-hydroxytryptamine receptor 5A (Homo sapiens), sequence (P47898 whole entry): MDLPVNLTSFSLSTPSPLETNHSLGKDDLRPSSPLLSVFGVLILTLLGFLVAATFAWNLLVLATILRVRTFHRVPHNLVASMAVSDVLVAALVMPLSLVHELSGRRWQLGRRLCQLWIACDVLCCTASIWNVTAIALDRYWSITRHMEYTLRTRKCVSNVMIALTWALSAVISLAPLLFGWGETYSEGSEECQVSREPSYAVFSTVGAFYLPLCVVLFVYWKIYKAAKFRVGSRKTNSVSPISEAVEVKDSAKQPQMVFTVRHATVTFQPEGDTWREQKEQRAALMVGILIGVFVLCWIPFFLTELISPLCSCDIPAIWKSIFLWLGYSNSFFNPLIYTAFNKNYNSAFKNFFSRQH
5-hydroxytryptamine receptor 2B, sequence (P41595 whole entry): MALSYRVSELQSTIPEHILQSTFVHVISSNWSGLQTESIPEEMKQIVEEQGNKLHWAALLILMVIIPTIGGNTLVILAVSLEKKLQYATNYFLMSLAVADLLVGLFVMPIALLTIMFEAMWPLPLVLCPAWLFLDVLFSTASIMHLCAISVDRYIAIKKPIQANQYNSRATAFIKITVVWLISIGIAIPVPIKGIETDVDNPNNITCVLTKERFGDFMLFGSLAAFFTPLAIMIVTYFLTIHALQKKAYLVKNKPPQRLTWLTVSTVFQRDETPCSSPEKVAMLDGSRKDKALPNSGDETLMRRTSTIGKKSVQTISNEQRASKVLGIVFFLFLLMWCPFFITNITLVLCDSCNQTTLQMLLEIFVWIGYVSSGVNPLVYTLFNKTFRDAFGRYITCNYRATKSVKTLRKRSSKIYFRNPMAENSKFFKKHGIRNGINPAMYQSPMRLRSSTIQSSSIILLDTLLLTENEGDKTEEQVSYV
Serine/threonine-protein kinase 3 (Homo sapiens), sequence (Q13188 whole entry): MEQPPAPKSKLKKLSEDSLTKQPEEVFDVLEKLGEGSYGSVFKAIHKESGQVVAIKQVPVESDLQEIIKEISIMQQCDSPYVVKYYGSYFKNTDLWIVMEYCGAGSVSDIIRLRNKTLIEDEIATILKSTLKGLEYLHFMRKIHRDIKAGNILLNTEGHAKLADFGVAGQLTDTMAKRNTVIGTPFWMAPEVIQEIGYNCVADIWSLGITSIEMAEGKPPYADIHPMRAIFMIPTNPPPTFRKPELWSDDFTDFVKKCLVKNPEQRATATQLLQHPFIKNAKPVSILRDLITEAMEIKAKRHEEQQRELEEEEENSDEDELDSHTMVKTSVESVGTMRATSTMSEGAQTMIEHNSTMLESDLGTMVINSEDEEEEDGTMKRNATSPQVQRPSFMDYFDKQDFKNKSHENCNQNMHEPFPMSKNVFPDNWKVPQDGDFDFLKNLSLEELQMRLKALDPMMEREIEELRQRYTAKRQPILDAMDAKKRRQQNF
Vascular endothelial growth factor receptor 1 (Homo sapiens), sequence (P17948 whole entry): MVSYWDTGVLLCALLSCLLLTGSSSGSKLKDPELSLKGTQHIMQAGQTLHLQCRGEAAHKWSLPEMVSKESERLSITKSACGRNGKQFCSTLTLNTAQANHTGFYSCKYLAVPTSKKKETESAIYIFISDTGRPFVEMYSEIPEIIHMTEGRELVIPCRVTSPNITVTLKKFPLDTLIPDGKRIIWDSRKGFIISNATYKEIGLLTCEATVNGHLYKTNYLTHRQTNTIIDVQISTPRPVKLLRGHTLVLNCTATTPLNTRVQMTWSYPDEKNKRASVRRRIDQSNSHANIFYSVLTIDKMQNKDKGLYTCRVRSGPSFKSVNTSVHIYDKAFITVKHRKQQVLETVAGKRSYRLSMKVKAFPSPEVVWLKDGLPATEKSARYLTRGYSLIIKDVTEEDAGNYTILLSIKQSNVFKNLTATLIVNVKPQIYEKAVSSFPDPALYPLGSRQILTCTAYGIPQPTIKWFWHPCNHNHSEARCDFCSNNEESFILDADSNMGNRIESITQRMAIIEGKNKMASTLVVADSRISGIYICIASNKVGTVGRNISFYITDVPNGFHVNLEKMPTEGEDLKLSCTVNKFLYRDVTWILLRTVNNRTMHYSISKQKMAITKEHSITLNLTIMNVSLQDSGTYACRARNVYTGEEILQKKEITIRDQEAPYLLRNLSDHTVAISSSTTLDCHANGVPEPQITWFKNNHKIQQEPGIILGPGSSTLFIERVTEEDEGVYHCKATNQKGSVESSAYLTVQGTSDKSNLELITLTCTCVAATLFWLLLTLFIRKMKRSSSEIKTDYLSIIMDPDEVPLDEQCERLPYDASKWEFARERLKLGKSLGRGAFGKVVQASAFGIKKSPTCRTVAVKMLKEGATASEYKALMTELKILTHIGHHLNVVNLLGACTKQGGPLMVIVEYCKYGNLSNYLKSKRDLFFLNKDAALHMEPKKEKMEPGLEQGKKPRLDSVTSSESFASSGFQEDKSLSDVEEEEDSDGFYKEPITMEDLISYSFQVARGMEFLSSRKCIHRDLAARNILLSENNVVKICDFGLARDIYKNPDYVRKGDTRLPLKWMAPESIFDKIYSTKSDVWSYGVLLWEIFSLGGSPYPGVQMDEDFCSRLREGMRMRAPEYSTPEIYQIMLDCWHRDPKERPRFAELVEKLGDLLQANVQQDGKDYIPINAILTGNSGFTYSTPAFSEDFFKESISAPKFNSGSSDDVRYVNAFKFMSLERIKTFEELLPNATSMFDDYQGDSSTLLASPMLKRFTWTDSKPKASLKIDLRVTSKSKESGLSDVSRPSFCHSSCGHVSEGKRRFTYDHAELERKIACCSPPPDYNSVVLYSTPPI

With `c1ccc(C2CCN(c3cnc4c(N5CCOCC5)nccn34)CC2)cc1`, the inhibition in test [1] was 5.84%.
With `COCCc1ccc(-c2c(C)nc3c(N4CCOCC4)ccnn23)cn1` [JNJ-42396302], the inhibition is 1% in test [2]; 2% in [7]; 10% in [9]; 5.53% in [11]; 5% in test [13]; 5% in [14]. Further, the inhibition in [17] is -4%; in test [18], -1%; in [19] it was -8%; in test [20], 4%; in [22] it was -5%; in test [23], 3%. Also, the inhibition was -6% in [24]; 1% in test [25]; -1.98% in [26]; 2% in [27]; -4% in test [28]; -10% in [29]. The figures for the inhibition in test [33], in test [34] and in test [36] were 6%, 6% and 0%, respectively. Further, the effect in test [3] is -23.4%; in test [4] it was 7.1%; in [5], 0.15%; in test [6] it was 2.15%; in test [8], 8.6%; in [10] it was 11%. For the same compound, the effect in the test filed under Rattus norvegicus was -6.2%; in test [12] it was 5.7%; in [15], 6.7%; in test [16], 9.7%; in [21] it was 2.4%; in [30], -7.45%. Also, the effect in test [32] was -3.05%; in test [35], 13.4%. Further, the Increase in cAMP in test [31] was 10 fold. For the same compound, the negative-log Ki (pKi) in test [37] is 4.49.
